Measurements taken from patent US9913843B2, “Protein kinase C inhibitors and uses thereof” (Rigel Pharmaceuticals, Inc., priority 2012, dated 2018).
Like-named read-outs stand apart in the source and are kept apart here.

System: PKC mediated IL-2 production in human primary T cells
Assay: IL-2 ELISA, human primary T cell, anti CD3+CD28+ (whole cell functional assay for PKC mediated IL-2 production)
Type: cell-based
Experimental: Human primary T cells were prepared as follows. Fresh PBMC's from All Cells (Cat # PB002) were re-suspended in RPMI (RPMI-1640 with L-Glutamine; Mediatech, Inc., Herndon Va., cat. #10-040-CM) with 10% FBS and seeded into flasks and incubated at 37° C. for 2 hours to allow the monocytes to adhere. The non-adherent cells were then centrifuged and re-suspended in RPMI medium containing 40 U/ml IL2 and seeded into a flask pre-coated with 1 μg/ml aCD3 and 5 ug/ml aCD28 (Anti-Human CD3, BD Pharmingen Catalog #555336, Anti-Human CD28, Beckman Coulter Catalog #IM1376). The cells were stimulated for 3-4 days, then transferred to a fresh flask and maintained in RPMI (RPMI-1640 with L-Glutamine; Mediatech, Inc., Herndon Va., cat. #10-040-CM) with 10% FBS and 40 U/ml IL-2.
Human primary T cells (100,000 cells per well) were pre-incubated with or without test compound in RPMI-1640 with L-Glutamine and 10% FBS for 1 hour at 37° C. Cells were then stimulated by transferring them to round-bottom 96-well plates pre-coated with 1 μg/ml aCD3 and 5 μg/ml aCD28. For counter assay, cells were instead stimulated by adding 8× stock solutions of PMA and ionomycin in RPMI-1640 with L-Glutamine and 10% FBS (for final concentrations of 0.5 ng/ml PMA and 0.1 μM ionomycin, both from Calbiochem). Cells were incubated at 37° C. for 24 hours before 100 μL supernatants were harvested for quantification of IL-2 by ELISA using Human IL-2 Duoset ELISA Kit from R and D Systems, Cat. # DY202E.
Compounds 1-156 were tested in a whole cell functional assay for PKC mediated IL-2 production as follows. Human primary T cell isolation and culture: Human primary T cells were prepared as follows. Whole blood was obtained from a healthy volunteer, mixed 1:1 with PBS, layered on to Ficoll Hypaque (Amersham Pharmacia Biotech, Piscataway, N.J., Catalog #17-1440-03) in 2:1 blood/PBS:ficoll ratio and centrifuged for 30 minutes at 4° C. at 1750 rpm. The cells at the serum: ficoll interface were recovered and washed twice with 5 volumes of PBS. These freshly isolated human peripheral blood mononuclear cells were cultured in Yssel's medium containing 40 U/ml IL2 in a flask pre-coated with 1 μg/ml aCD3 and 5 μg/ml aCD28 (Anti-Human CD3, BD Pharmingen Catalog #555336, Anti-Human CD28, Beckman Coulter Catalog #IM1376). The cells were stimulated for 3-4 days, then transferred to a fresh flask and maintained in RPMI (RPMI-1640 with L-Glutamine; Mediatech, Inc., Herndon Va., cat. #10-040-CM) with 10% FBS and 40 U/ml IL-2. The primary T-cells were then washed twice with PBS to remove the IL-2.
Primary T cell stimulation and IL2 ELISA: Human primary T cells (100,000 cells per well) were pre-incubated with or without test compound in Yssel's medium for 1 hour at 37° C. Cells were then stimulated by transferring them to round-bottom 96-well plates pre-coated with 1 μg/ml aCD3 and 5 μg/ml αCD28. For counter assay, cells were instead stimulated by adding 8× stock solutions of PMA and ionomycin in Yssels (for final concentrations of 0.5 ng/ml PMA and 0.1 uM ionomycin, both from Calbiochem). Cells were incubated at 37° C. for 24 hours before 100 μL supernatants were harvested for quantification of IL-2 by ELISA using Human IL-2 Duoset ELISA Kit from R and D Systems, Cat. # DY202E.

[1] = 24 h, human primary T cells stimulated with anti-CD3 + anti-CD28, IL-2 by ELISA, read-out: IC50 for blocking IL-2 production
[2] = human primary T cells stimulated with anti-CD3 + anti-CD28, 24 h, IL-2 by ELISA, 8 pt, read-out: IL2 ELISA, Human primary T cell, anti-CD3 + CD28, 8 pt (IC50)

| IC50 [1] [nM] | IC50 [2] [nM] | SMILES |
| --- | --- | --- |
| < 30000 | 348 | N#Cc1cc(Nc2ncc(Cl)c(NC[C@@H]3CCCN4CCCC[C@H]34)n2)c(F)cc1C1CC1 [Compound 42, 5-(4-(((1S,9aR)-octahydro-1H-quinolizin-1-yl)methylamino)-5-chloropyrimidin-2-ylamino)-2-cyclopropyl-4-fluorobenzonitrile] |
| < 30000 | 412 | COc1cc(Nc2ncc(Cl)c(NC[C@@H]3CCCN4CCCC[C@H]34)n2)cc(OC)c1 [Compound 43, 5-chloro-N4-(((1S,9aR)-octahydro-1H-quinolizin-1-yl)methyl)-N2-(3,5-dimethoxyphenyl)pyrimidine-2,4-diamine] |
| < 30000 | 1180 | O=c1[nH]c2cc(Nc3ncc(Cl)c(NC[C@@H]4CCCN5CCCC[C@H]45)n3)ccc2o1 [Compound 44, 5-(4-(((1S,9aR)-octahydro-1H-quinolizin-1-yl)methylamino)-5-chloropyrimidin-2-ylamino)benzo[d]oxazol-2(3H)-one] |
| < 30000 | 224 | Fc1ccc(-n2nnnc2C2CC2)cc1Nc1ncc(F)c(NC[C@@H]2CCCN3CCCC[C@H]23)n1 [Compound 45, N2-(5-(5-cyclopropyl-1H-tetrazol-1-yl)-2-fluorophenyl)-5-fluoro-N4-(((1S,9aR)-octahydro-1H-quinolizin-1-yl)methyl)pyrimidine-2,4-diamine] |
| < 30000 | 1120 | Fc1cc(C2CC2)c(-n2cnnn2)cc1Nc1nccc(NC[C@@H]2CCCN3CCCC[C@H]23)n1 [Compound 46, N2-(4-cyclopropyl-2-fluoro-5-(1H-tetrazol-1-yl)phenyl)-N4-(((1S,9aR)-octahydro-1H-quinolizin-1-yl)methyl)pyrimidine-2,4-diamine] |
| < 30000 | 649 | Cc1ccc(Nc2nccc(NC[C@@H]3CCCN4CCCC[C@H]34)n2)cc1-n1cnnn1 [Compound 47, N4-(((1S,9aR)-octahydro-1H-quinolizin-1-yl)methyl)-N2-(4-methyl-3-(1H-tetrazol-1-yl)phenyl)pyrimidine-2,4-diamine] |
| < 30000 | 3820 | Cn1nnn(-c2cc(Nc3nccc(NC[C@@H]4CCCN5CCCC[C@H]45)n3)c(F)cc2C2CC2)c1=O [Compound 48, 1-(5-(4-(((1S,9aR)-octahydro-1H-quinolizin-1-yl)methylamino)pyrimidin-2-ylamino)-2-cyclopropyl-4-fluorophenyl)-4-methyl-1H-tetrazol-5(4H)-one] |
| < 30000 | 897 | Cc1nnnn1-c1cc(Nc2nccc(NC[C@@H]3CCCN4CCCC[C@H]34)n2)ccc1F [Compound 49, N2-(4-fluoro-3-(5-methyl-1H-tetrazol-1-yl)phenyl)-N4-(((1S,9aR)-octahydro-1H-quinolizin-1-yl)methyl)pyrimidine-2,4-diamine] |
| < 30000 | 2000 | Cc1nnnn1-c1ccc(F)c(Nc2nccc(NC[C@@H]3CCCN4CCCC[C@H]34)n2)c1 [Compound 50, N2-(2-fluoro-5-(5-methyl-1H-tetrazol-1-yl)phenyl)-N4-(((1S,9aR)-octahydro-1H-quinolizin-1-yl)methyl)pyrimidine-2,4-diamine] |
| < 30000 | 532 | COc1ccc(Nc2nccc(NC[C@@H]3CCCN4CCCC[C@H]34)n2)cc1-n1nnnc1C [Compound 51, N4-(((1S,9aR)-octahydro-1H-quinolizin-1-yl)methyl)-N2-(4-methoxy-3-(5-methyl-1H-tetrazol-1-yl)phenyl)pyrimidine-2,4-diamine] |
| < 30000 | 442 | COc1cc(Nc2nccc(NC[C@@H]3CCCN4CCCC[C@H]34)n2)cc(-n2nnnc2C)c1 [Compound 52, N4-(((1S,9aR)-octahydro-1H-quinolizin-1-yl)methyl)-N2-(3-methoxy-5-(5-methyl-1H-tetrazol-1-yl)phenyl)pyrimidine-2,4-diamine] |
| < 30000 | 2530 | N#Cc1cccc(Nc2nccc(NC[C@@H]3CCCN4CCCC[C@H]34)n2)c1 [Compound 53, 3-(4-(((1S,9aR)-octahydro-1H-quinolizin-1-yl)methylamino)pyrimidin-2-ylamino)benzonitrile] |
| < 30000 | 1100 | Cc1ccc(Nc2nccc(NC[C@@H]3CCCN4CCCC[C@H]34)n2)cc1C#N [Compound 54, 5-(4-(((1S,9aR)-octahydro-1H-quinolizin-1-yl)methylamino)pyrimidin-2-ylamino)-2-methylbenzonitrile] |
| < 30000 | 607 | N#Cc1cc(Nc2nccc(NC[C@@H]3CCCN4CCCC[C@H]34)n2)ccc1C1CC1 [Compound 55, 5-(4-(((1S,9aR)-octahydro-1H-quinolizin-1-yl)methylamino)pyrimidin-2-ylamino)-2-cyclopropylbenzonitrile] |
| < 30000 | 3800 | N#Cc1cc(Nc2nccc(NC[C@@H]3CCCN4CCCC[C@H]34)n2)c(F)cc1C1CC1 [Compound 56, 5-(4-(((1S,9aR)-octahydro-1H-quinolizin-1-yl)methylamino)pyrimidin-2-ylamino)-2-cyclopropyl-4-fluorobenzonitrile] |
| < 30000 | 3590 | COc1cc(Nc2nccc(NC[C@@H]3CCCN4CCCC[C@H]34)n2)cc(OC)c1 [Compound 57, N4-(((1S,9aR)-octahydro-1H-quinolizin-1-yl)methyl)-N2-(3,5-dimethoxyphenyl)pyrimidine-2,4-diamine] |
| < 30000 | 18600 | O=c1[nH]c2cc(Nc3nccc(NC[C@@H]4CCCN5CCCC[C@H]45)n3)ccc2o1 [Compound 58, 5-(4-(((1S,9aR)-octahydro-1H-quinolizin-1-yl)methylamino)pyrimidin-2-ylamino)benzo[d]oxazol-2(3H)-one] |
| < 30000 | 160 | Cc1cnc(Nc2cc(-n3cnnn3)c(C3CC3)cc2F)nc1NC[C@@H]1CCCN2CCCC[C@H]12 [Compound 59, N2-(4-cyclopropyl-2-fluoro-5-(1H-tetrazol-1-yl)phenyl)-N4-(((1S,9aR)-octahydro-1H-quinolizin-1-yl)methyl)-5-methylpyrimidine-2,4-diamine] |
| < 30000 | 1360 | Cc1ccc(Nc2ncc(C)c(NC[C@@H]3CCCN4CCCC[C@H]34)n2)cc1-n1cnnn1 [Compound 60, N4-(((1S,9aR)-octahydro-1H-quinolizin-1-yl)methyl)-5-methyl-N2-(4-methyl-3-(1H-tetrazol-1-yl)phenyl)pyrimidine-2,4-diamine] |
| < 30000 | 1980 | Cc1cnc(Nc2cc(-n3nnn(C)c3=O)c(C3CC3)cc2F)nc1NC[C@@H]1CCCN2CCCC[C@H]12 [Compound 61, 1-(5-(4-(((1S,9aR)-octahydro-1H-quinolizin-1-yl)methylamino)-5-methylpyrimidin-2-ylamino)-2-cyclopropyl-4-fluorophenyl)-4-methyl-1H-tetrazol-5(4H)-one] |
| < 30000 | 1870 | Cc1cnc(Nc2ccc(F)c(-n3nnnc3C)c2)nc1NC[C@@H]1CCCN2CCCC[C@H]12 [Compound 62, N2-(4-fluoro-3-(5-methyl-1H-tetrazol-1-yl)phenyl)-N4-(((1S,9aR)-octahydro-1H-quinolizin-1-yl)methyl)-5-methylpyrimidine-2,4-diamine] |
| < 30000 | 1160 | Cc1cnc(Nc2cc(-n3nnnc3C)ccc2F)nc1NC[C@@H]1CCCN2CCCC[C@H]12 [Compound 63, N2-(2-fluoro-5-(5-methyl-1H-tetrazol-1-yl)phenyl)-N4-(((1S,9aR)-octahydro-1H-quinolizin-1-yl)methyl)-5-methylpyrimidine-2,4-diamine] |
